Experimental data from ChEMBL document CHEMBL1201862, “PubChem BioAssay data set” (2004).
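Exposure lasted 48 hours, with cells grown in 96-well plates and compounds tested at five concentrations. At the GI50, growth is halved.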 Active and inactive are the calls of the source. Rule as the data show it: active = GI50 up to about 1.1 µM and inactive = higher.

Columns and labels:
Assay in all cases: NCI-60 cell line screen, 48 h
A498 = test system: A498
COLO 205 = test system: COLO 205
SF-268 = test system: SF-268
MCF7 = test system: MCF7
NCI-H226 = test system: NCI-H226
HL-60 = test system: HL-60
NCI-H522 = test system: NCI-H522
RXF 393 = test system: RXF 393
OVCAR-4 = test system: OVCAR-4
SNB-19 = test system: SNB-19
TK-10 = test system: TK-10
SK-MEL-2 = test system: SK-MEL-2
SF-539 = test system: SF-539
BT-549 = test system: BT-549
HOP-62 = test system: HOP-62
SK-MEL-5 = test system: SK-MEL-5
SR = test system: SR
NCI/ADR-RES = test system: NCI/ADR-RES
EKVX = test system: EKVX
SW-620 = test system: SW-620
LOX IMVI = test system: LOX IMVI
SN12C = test system: SN12C
SF-295 = test system: SF-295
NCI-H23 = test system: NCI-H23
OVCAR-3 = test system: OVCAR-3
NCI-H460 = test system: NCI-H460
SK-OV-3 = test system: SK-OV-3
HCT-116 = test system: HCT-116
RPMI-8226 = test system: RPMI-8226
A549 = test system: A549
IGROV-1 = test system: IGROV-1
ACHN = test system: ACHN
K562 = test system: K562
U-251 = test system: U-251
CAKI-1 = test system: CAKI-1
HCT-15 = test system: HCT-15
UACC-257 = test system: UACC-257
HT-29 = test system: HT-29
786-0 = test system: 786-0
UACC-62 = test system: UACC-62
MOLT-4 = test system: MOLT-4
KM12 = test system: KM12
CCRF-CEM = test system: CCRF-CEM
HCC 2998 = test system: HCC 2998
T47D = test system: T47D
MDA-MB-231 = test system: MDA-MB-231
SNB-75 = test system: SNB-75
Hs-578T = test system: Hs-578T
OVCAR-5 = test system: OVCAR-5
OVCAR-8 = test system: OVCAR-8
DU-145 = test system: DU-145
MDA-MB-435 = test system: MDA-MB-435
SK-MEL-28 = test system: SK-MEL-28
MDA-N = test system: MDA-N
PC-3 = test system: PC-3
M14 = test system: M14
Malme-3M = test system: Malme-3M
UO-31 = test system: UO-31

In the case of `O=C(O)c1ccc(S(=O)(=O)c2ccccc2[N+](=O)[O-])cc1`, the GI50 (A498) is reported as > 10 µM (inactive), the GI50 (COLO 205) is reported as > 10 µM (inactive) and the GI50 (SF-268) is reported as > 10 µM (inactive). The GI50 (MCF7) was > 10 µM (inactive), the GI50 (NCI-H226) was > 10 µM (inactive) and the GI50 (HL-60) was > 10 µM (inactive). The GI50 (NCI-H522) was > 10 µM (inactive), the GI50 (RXF 393) was > 10 µM (inactive) and the GI50 (OVCAR-4) was > 10 µM (inactive). For the same compound, the GI50 (SNB-19) was > 10 µM (inactive), the GI50 (TK-10) was > 10 µM (inactive) and the GI50 (SK-MEL-2) was > 10 µM (inactive). For the same compound, the GI50 (SF-539) was > 10 µM (inactive), the GI50 (BT-549) was > 10 µM (inactive) and the GI50 (HOP-62) was > 10 µM (inactive). The GI50 (SK-MEL-5) was > 10 µM (inactive), the GI50 (SR) was > 10 µM (inactive) and the GI50 (NCI/ADR-RES) was > 10 µM (inactive). The GI50 (EKVX) was > 10 µM (inactive), the GI50 (SW-620) was > 10 µM (inactive) and the GI50 (LOX IMVI) was > 10 µM (inactive). The GI50 (SN12C) was > 10 µM (inactive), the GI50 (SF-295) was > 10 µM (inactive) and the GI50 (NCI-H23) was > 10 µM (inactive). The GI50 (OVCAR-3) was > 10 µM (inactive), the GI50 (NCI-H460) was > 10 µM (inactive) and the GI50 (SK-OV-3) was > 10 µM (inactive). The GI50 (HCT-116) was > 10 µM (inactive), the GI50 (RPMI-8226) was > 10 µM (inactive) and the GI50 (A549) was > 10 µM (inactive). For the same compound, the GI50 (IGROV-1) was > 10 µM (inactive), the GI50 (ACHN) was > 10 µM (inactive) and the GI50 (K562) was > 10 µM (inactive). The GI50 (U-251) was > 10 µM (inactive), the GI50 (CAKI-1) was > 10 µM (inactive) and the GI50 (HCT-15) was > 10 µM. The GI50 (UACC-257) was > 10 µM (inactive), the GI50 (HT-29) was > 10 µM (inactive) and the GI50 (786-0) was > 10 µM (inactive). The GI50 (UACC-62) was > 10 µM (inactive), the GI50 (MOLT-4) was > 10 µM (inactive) and the GI50 (KM12) was > 10 µM (inactive). For the same compound, the GI50 (CCRF-CEM) was > 10 µM (inactive), the GI50 (HCC 2998) was > 10 µM (inactive) and the GI50 (T47D) was > 10 µM (inactive). For the same compound, the GI50 (MDA-MB-231) was > 10 µM (inactive), the GI50 (SNB-75) was > 10 µM (inactive) and the GI50 (Hs-578T) was > 10 µM (inactive). For the same compound, the GI50 (OVCAR-5) was > 10 µM (inactive), the GI50 (OVCAR-8) was > 10 µM (inactive) and the GI50 (DU-145) was > 10 µM (inactive). The GI50 (MDA-MB-435) was > 10 µM (inactive), the GI50 (SK-MEL-28) was > 10 µM (inactive) and the GI50 (MDA-N) was > 10 µM (inactive). The GI50 (PC-3) was > 10 µM (inactive), the GI50 (M14) was > 10 µM (inactive) and the GI50 (Malme-3M) was > 10 µM (inactive).
In the case of `COC(=O)C1C2CCCN2OC1(C)CO` (configuration not stated), the GI50 (A498) is reported as > 100 µM (inactive), the GI50 (COLO 205) is reported as > 100 µM (inactive) and the GI50 (SF-268) is reported as > 100 µM (inactive). The GI50 (MCF7) was > 100 µM (inactive), the GI50 (NCI-H226) was > 100 µM (inactive) and the GI50 (HL-60) was > 100 µM (inactive). For the same compound, the GI50 (NCI-H522) was > 100 µM (inactive), the GI50 (OVCAR-4) was > 100 µM (inactive) and the GI50 (SNB-19) was > 100 µM (inactive). For the same compound, the GI50 (TK-10) was > 100 µM (inactive), the GI50 (SK-MEL-2) was > 100 µM (inactive) and the GI50 (SF-539) was > 100 µM (inactive). The GI50 (BT-549) was > 100 µM (inactive), the GI50 (HOP-62) was > 100 µM (inactive) and the GI50 (SK-MEL-5) was > 100 µM (inactive). For the same compound, the GI50 (SR) was > 100 µM (inactive), the GI50 (NCI/ADR-RES) was > 100 µM (inactive) and the GI50 (EKVX) was > 100 µM (inactive). For the same compound, the GI50 (SW-620) was > 100 µM (inactive), the GI50 (LOX IMVI) was > 100 µM (inactive) and the GI50 (SN12C) was > 100 µM (inactive). For the same compound, the GI50 (SF-295) was > 100 µM (inactive), the GI50 (NCI-H23) was > 100 µM (inactive) and the GI50 (OVCAR-3) was > 100 µM (inactive). For the same compound, the GI50 (NCI-H460) was > 100 µM (inactive), the GI50 (SK-OV-3) was > 100 µM (inactive) and the GI50 (HCT-116) was > 100 µM (inactive). For the same compound, the GI50 (RPMI-8226) was > 100 µM (inactive), the GI50 (A549) was > 100 µM (inactive) and the GI50 (IGROV-1) was > 100 µM (inactive). The GI50 (ACHN) was > 100 µM (inactive), the GI50 (K562) was > 100 µM (inactive) and the GI50 (UO-31) was > 100 µM (inactive). The GI50 (U-251) was > 100 µM (inactive), the GI50 (CAKI-1) was > 100 µM (inactive) and the GI50 (HCT-15) was > 100 µM. The GI50 (UACC-257) was > 100 µM (inactive), the GI50 (HT-29) was > 100 µM (inactive) and the GI50 (786-0) was > 100 µM (inactive). For the same compound, the GI50 (UACC-62) was > 100 µM (inactive), the GI50 (MOLT-4) was > 100 µM (inactive) and the GI50 (KM12) was > 100 µM (inactive). The GI50 (CCRF-CEM) was > 100 µM (inactive), the GI50 (T47D) was > 100 µM (inactive) and the GI50 (MDA-MB-231) was > 100 µM (inactive). For the same compound, the GI50 (SNB-75) was > 100 µM (inactive), the GI50 (Hs-578T) was > 100 µM (inactive) and the GI50 (OVCAR-5) was > 100 µM (inactive). For the same compound, the GI50 (OVCAR-8) was > 100 µM (inactive), the GI50 (DU-145) was > 100 µM (inactive) and the GI50 (MDA-MB-435) was > 100 µM (inactive). For the same compound, the GI50 (SK-MEL-28) was > 100 µM (inactive), the GI50 (MDA-N) was > 100 µM (inactive) and the GI50 (PC-3) was > 100 µM (inactive). The GI50 (M14) was > 100 µM (inactive).
